Assay results as given in US20250304537A1 (Repare Therapeutics Inc., priority 2022, published 2025).
Where two headings read alike, the source gives them in different places.

Test system: PKMYT1 (CDK1 pThr14) in FUOV1 cells
Test: PKMYT1 cell-based activity assay, CDK1 pThr14 AlphaLISA in FUOV1 cells
Details: read-out: FUOV-1 CDK1 pThr14 IC50
Outline: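 FUOV1 cells were treated with PKMYT1 inhibitor for 2 h at 37 °C, then lysed. CDK1 pThr14 was measured by AlphaLISA, pairing an anti-pThr14 antibody with an anti-total CDK1 antibody (5 nM each). Signal read at 680/615 nm and used to derive IC50.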

## Cc1ccc2[nH]ncc2c1-c1nc(-c2ccc(F)cc2Nc2nccc(N3CCOCC3)n2)nc(C(N)=O)c1N [Compound 577]
2 h, 2 h compound incubation
  IC50: 0.702 µM

## Cc1ccc2[nH]ncc2c1-c1nc(-c2ccc(C#N)cc2Nc2cccnn2)nc(C(N)=O)c1N [Compound 765]
2 h, 2 h compound incubation
  IC50: 0.023 µM

## Cc1ccc2[nH]ncc2c1-c1nc(-c2cc(F)cnc2N[C@@H]2CCOC2)nc(C(N)=O)c1N [Compound 685]
2 h, 2 h compound incubation
  IC50: 0.012 µM

## Cc1ccc(-c2nc(C(N)=O)c(N)c(-c3c(C)ccc4[nH]ncc34)n2)c(Nc2nc(C)cnc2C)n1 [Compound 689]
2 h, 2 h compound incubation
  IC50: 0.006 µM

## Cc1ccc2[nH]ncc2c1-c1nc(-c2cc(F)cnc2NC2CCOCC2)nc(C(N)=O)c1N [Compound 686]
2 h, 2 h compound incubation
  IC50: 0.01 µM

## Cc1ccc2[nH]ncc2c1-c1nc(-c2ccc(F)cc2Nc2cncnc2C(=N)N)nc(C(N)=O)c1N [Compound 694]
2 h, 2 h compound incubation
  IC50: 0.423 µM

## Cc1ccc2[nH]ncc2c1-c1nc(-c2ccc(C#N)nc2NC2CC(F)(F)C2)nc(C(N)=O)c1N [Compound 809]
2 h, 2 hours with compound
  IC50: 0.272 µM

## Cc1ccc2n[nH]cc2c1-c1nc(-c2cc(F)cnc2N[C@H]2C[C@](O)(C(F)F)C2)nc(C(N)=O)c1N [Compound 897]
2 h, 2 hours with compound
  IC50: 0.122 µM

## Cc1ccc2[nH]ncc2c1-c1nc(-c2cc(F)cnc2N[C@H]2CC[C@@H](O)C2)nc(C(N)=O)c1N [Compound 797]
2 h, 2 hours with compound
  IC50: 0.048 µM

## Cc1ccc2[nH]ncc2c1-c1nc(-c2cc(F)ccc2Nc2ncc(C#N)s2)nc(C(N)=O)c1N [Compound 506]
2 h, 2 h compound incubation
  IC50: 0.236 µM

## Cc1ccc2[nH]ncc2c1-c1nc(-c2ccccc2Nc2ncc(F)cn2)nc(C(N)=O)c1N [Compound 494]
2 h, 2 h compound incubation
  IC50: 0.144 µM

## Cc1ccc2[nH]ncc2c1-c1nc(-c2ccccc2CO)nc(C(N)=O)c1N [Compound 779]
2 h, 2 h compound incubation
  IC50: 0.494 µM

## Cc1cc(C)nc(Nc2cc(F)ccc2-c2nc(C(N)=O)c(N)c(-c3c(C)ccc4[nH]ncc34)n2)n1 [Compound 567]
2 h, 2 h compound incubation
  IC50: 0.389 µM

## [2H]C([2H])([2H])c1ccc2[nH]ncc2c1-c1nc(-c2cccnc2NC23CC(C#N)(C2)C3)nc(C(N)=O)c1N [Compound 957, 5-amino-2-[2-[(3-cyano-1-bicyclo[1.1.1]pentanyl)amino]-3-pyridyl]-6-[5-(trideuteriomethyl)-1H-indazol-4-yl]pyrimidine-4-carboxamide]
2 h, 2 hours with compound
  IC50: 0.16 µM

## Cc1ccc2[nH]ncc2c1-c1cc2c(oc3ccc(F)nc32)c(C(N)=O)c1N [Compound 557]
2 h, 2 h compound incubation
  IC50: 0.416 µM

## Cc1ccc2[nH]ncc2c1-c1nc(-c2cc(F)cnc2N[C@H]2C[C@H](O)C2)nc(C(N)=O)c1N [Compound 690]
2 h, 2 h compound incubation
  IC50: 0.016 µM

## COc1ccc(F)c(Nc2nc(F)ccc2-c2nc(C(N)=O)c(N)c(-c3c(C)ccc4[nH]ncc34)n2)n1 [Compound 922]
2 h, 2 hours with compound
  IC50: 0.034 µM

## Cc1ccc2[nH]ncc2c1-c1nc(-c2cc(F)c(F)cc2NC2COC2)nc(C(N)=O)c1N [Compound 497]
2 h, 2 h compound incubation
  IC50: 0.052 µM

## Cc1ccc2[nH]ncc2c1-c1cc2c(oc3ccc(N[C@H]4CCOC4)nc32)c(C(N)=O)c1N [Compound 668]
2 h, 2 h compound incubation
  IC50: 0.094 µM

## Cc1ccc2[nH]ncc2c1-c1nc(-c2ccc(F)cc2Nc2cccnc2C#N)nc(C(N)=O)c1N [Compound 674]
2 h, 2 h compound incubation
  IC50: 0.027 µM

## Cc1ccc2[nH]ncc2c1-c1nc(-c2cccnc2Nc2cccc(S(N)(=O)=O)c2)nc(C(N)=O)c1N [Compound 631]
2 h, 2 h compound incubation
  IC50: 0.096 µM

## Cc1ccc2[nH]ncc2c1-c1nc(-c2c[nH]nc2NC2CCOCC2)nc(C(N)=O)c1N [Compound 927]
2 h, 2 hours with compound
  IC50: 0.343 µM

## Cc1cc(F)c2[nH]ncc2c1-c1nc(-c2cc(F)cnc2NCC(C)(C)C#N)nc(C(N)=O)c1N [Compound 874]
2 h, 2 hours with compound
  IC50: 0.121 µM

## COc1ccnc(Nc2cc(F)ccc2-c2nc(C(N)=O)c(N)c(-c3c(C)ccc4[nH]ncc34)n2)n1 [Compound 570]
2 h, 2 h compound incubation
  IC50: 0.111 µM

## Cc1ccc2[nH]ncc2c1-c1nc(-c2cc(F)c(F)cc2NC(=O)C(C)(C)C)nc(C(N)=O)c1N [Compound 487]
2 h, 2 h compound incubation
  IC50: 0.068 µM

## Cc1ccc2[nH]ncc2c1-c1nc(-c2cccnc2N[C@H]2CC[C@@H](O)C2)nc(C(N)=O)c1N [Compound 784]
2 h, 2 h compound incubation
  IC50: 0.044 µM

## Cc1cc(F)c2[nH]ncc2c1-c1nc(-c2ccc(F)nc2Nc2nccnc2C(F)F)nc(C(N)=O)c1N [Compound 868]
2 h, 2 hours with compound
  IC50: 0.139 µM

## Cc1ccc2[nH]ncc2c1-c1nc(-c2cn(C)nc2Nc2ncccn2)nc(C(N)=O)c1N [Compound 926]
2 h, 2 hours with compound
  IC50: 0.659 µM

## Cc1cc(F)c2[nH]ncc2c1-c1nc(-c2ccc(F)cc2Nc2ncccc2C#N)nc(C(N)=O)c1N [Compound 880]
2 h, 2 hours with compound
  IC50: 0.008 µM

## Cc1ccc2[nH]ncc2c1-c1nc(-c2cc(F)cnc2N[C@H]2CC[C@H](C(C)(C)O)CC2)nc(C(N)=O)c1N [Compound 757]
2 h, 2 h compound incubation
  IC50: 0.199 µM

## Cc1ccc2[nH]ncc2c1-c1nc(-c2cccc(F)c2Nc2ncccn2)nc(C(N)=O)c1N [Compound 769]
2 h, 2 h compound incubation
  IC50: 0.23 µM

## Cc1ccc2[nH]ncc2c1-c1nc(-c2ccc(F)cc2Nc2ccnc(C)c2C)nc(C(N)=O)c1N [Compound 584]
2 h, 2 h compound incubation
  IC50: 0.018 µM

## Cc1ccc2[nH]ncc2c1-c1nc(-c2ccc(F)cc2Nc2nncs2)nc(C(N)=O)c1N [Compound 579]
2 h, 2 h compound incubation
  IC50: 0.013 µM

## Cc1ccc2[nH]ncc2c1-c1cc(-c2ccnc(OCC(F)(F)F)n2)nc(C(N)=O)c1N [Compound 165]
2 h incubation
  IC50: > 10 µM

## Cc1ccc2[nH]ncc2c1-c1nc(-c2cccnc2NC2CC(F)(F)C2)nc(C(N)=O)c1N [Compound 675]
2 h, 2 h compound incubation
  IC50: 0.053 µM

## Cc1cccnc1Nc1cc(C#N)ccc1-c1nc(C(N)=O)c(N)c(-c2c(C)ccc3[nH]ncc23)n1 [Compound 754]
2 h, 2 h compound incubation
  IC50: 0.017 µM

## [2H]C([2H])([2H])c1ccc2[nH]ncc2c1-c1nc(-c2ccc(F)nc2Nc2ncccc2F)nc(C(N)=O)c1N [Compound 930]
2 h, 2 hours with compound
  IC50: 0.005 µM

## Cc1cc(F)c2[nH]ncc2c1-c1nc(-c2cc(F)ccc2Nc2ncc(F)cn2)nc(C(N)=O)c1N [Compound 677]
2 h, 2 h compound incubation
  IC50: 0.451 µM

## Cc1ccc2[nH]ncc2c1-c1nc(-c2cccnc2NC2CCN(C)C(=O)C2)nc(C(N)=O)c1N (stereo not drawn) [Compound 549]
2 h, 2 h compound incubation
  IC50: 1.32 µM

## Cc1ccc2[nH]ncc2c1-c1nc(-c2cccnc2NCCC#N)nc(C(N)=O)c1N [Compound 542]
2 h, 2 h compound incubation
  IC50: 0.077 µM

## Cc1ccc(F)c(Nc2ncccc2-c2cc(C(N)=O)c(N)c(-c3c(C)ccc4[nH]ncc34)n2)n1 [Compound 827, 5-amino-2′-((3-fluoro-6-methylpyridin-2-yl)amino)-6-(5-methyl-1H-indazol-4-yl)-[2,3′-bipyridine]-4-carboxamide]
2 h, 2 hours with compound
  IC50: 0.012 µM

## CSc1nccc(Nc2cc(F)ccc2-c2nc(C(N)=O)c(N)c(-c3c(C)ccc4[nH]ncc34)n2)n1 [Compound 583]
2 h, 2 h compound incubation
  IC50: 0.122 µM

## Cc1c(F)cc2[nH]ncc2c1-c1nc(-c2ccc(F)cc2Nc2ncccc2C#N)nc(C(N)=O)c1N [Compound 865]
2 h, 2 hours with compound
  IC50: 0.01 µM

## Cc1ccc2[nH]ncc2c1-c1nc(-c2ccc(Cl)nc2Nc2ncccc2C(F)F)nc(C(N)=O)c1N [Compound 944]
2 h, 2 hours with compound
  IC50: 0.028 µM

## COc1ccc(-c2nc(C(N)=O)c(N)c(-c3c(C)ccc4[nH]ncc34)n2)c(Nc2ncccn2)c1 [Compound 636]
2 h, 2 h compound incubation
  IC50: 0.097 µM

## Cc1ccc(O)c(C)c1-c1nc(-c2cc(F)cnc2NCC(F)F)nc(C(N)=O)c1N [Compound 700, 5-amino-2-(2-((2,2-difluoroethyl)amino)-5-fluoropyridin-3-yl)-6-(3-hydroxy-2,6-dimethylphenyl)pyrimidine-4-carboxamide]
2 h, 2 h compound incubation
  IC50: 0.009 µM

## Cc1ccc2[nH]ncc2c1-c1nc(-c2cc(F)cnc2N[C@H]2CC[C@@H](O)CC2)nc(C(N)=O)c1N [Compound 828]
2 h, 2 hours with compound
  IC50: 0.03 µM

## Cc1ncc(F)c(Nc2nc(F)ccc2-c2nc(C(N)=O)c(N)c(-c3c(C)ccc4[nH]ncc34)n2)n1 [Compound 954, 5-amino-2-(6-fluoro-2-((5-fluoro-2-methylpyrimidin-4-yl)amino)pyridin-3-yl)-6-(5-methyl-1H-indazol-4-yl)pyrimidine-4-carboxamide]
2 h, 2 hours with compound
  IC50: 0.011 µM

## Cc1ccc2[nH]ncc2c1-c1nc(-c2cc(F)cnc2NCC(C)(C)O)nc(C(N)=O)c1N [Compound 683]
2 h, 2 h compound incubation
  IC50: 0.065 µM

## Cc1ccc2[nH]ncc2c1-c1nc(-c2ccc(F)nc2Nc2cccnc2F)nc(C(N)=O)c1N [Compound 917]
2 h, 2 hours with compound
  IC50: 0.203 µM

## Cc1ccc2[nH]ncc2c1-c1nc(-c2cccnc2N[C@H]2CCOC2)nc(C(N)=O)c1N [Compound 550]
2 h, 2 h compound incubation
  IC50: 0.007 µM

## Cc1ccc2[nH]ncc2c1-c1nc(-c2cc(F)cnc2N[C@H]2C[C@](C)(O)C2)nc(C(N)=O)c1N [Compound 748]
2 h, 2 h compound incubation
  IC50: 0.04 µM

## Cc1ccc2[nH]ncc2c1-c1nc(-c2ccc(Cl)nc2N[C@H]2C[C@@](C)(O)C2)nc(C(N)=O)c1N [Compound 772]
2 h, 2 h compound incubation
  IC50: 0.113 µM

## Cc1ccc2[nH]ncc2c1-c1nc(-c2cc(F)cnc2NCC(F)F)nc(C(N)=O)c1N [Compound 504]
2 h, 2 h compound incubation
  IC50: 0.031 µM

## Cc1ccc2[nH]ncc2c1-c1cc2c(oc3ccc(OCc4cccnc4)nc32)c(C(N)=O)c1N [Compound 569, 7-amino-8-(5-methyl-1H-indazol-4-yl)-2-(pyridin-3-ylmethoxy)benzofuro[3,2-b]pyridine-6-carboxamide]
2 h, 2 h compound incubation
  IC50: 0.712 µM

## Cc1ccc(-c2nc(C(N)=O)c(N)c(-c3c(C)ccc4[nH]ncc34)n2)c(N[C@H]2C[C@@](C)(O)C2)n1 [Compound 956]
2 h, 2 hours with compound
  IC50: 0.092 µM

## Cc1ccc2[nH]ncc2c1-c1nc(-c2cccnc2Nc2nc(C#N)ccc2Cl)nc(C(N)=O)c1N [Compound 743]
2 h, 2 h compound incubation
  IC50: 0.003 µM

## Cc1ccc(Nc2ncccn2)c(-c2nc(C(N)=O)c(N)c(-c3c(C)ccc4[nH]ncc34)n2)c1 [Compound 646]
2 h, 2 h compound incubation
  IC50: 0.091 µM

## Cc1ccc2[nH]ncc2c1-c1nc(-c2cc(F)cnc2N[C@H]2CC[C@@](C)(O)CC2)nc(C(N)=O)c1N [Compound 723]
2 h, 2 h compound incubation
  IC50: 0.022 µM

## Cc1ccc2[nH]ncc2c1-c1nc(-c2cc(F)cnc2N[C@H](C)C(F)(F)F)nc(C(N)=O)c1N [Compound 889]
2 h, 2 hours with compound
  IC50: 0.056 µM

## Cc1ccc2[nH]ncc2c1-c1nc(-c2cccnc2N[C@H]2C[C@@](C)(O)C2)nc(C(N)=O)c1N [Compound 918]
2 h, 2 hours with compound
  IC50: 0.047 µM

## Cc1ccc2[nH]ncc2c1-c1nc(-c2ccc(F)cc2N[C@H]2C[C@](C)(O)C2)nc(C(N)=O)c1N [Compound 861]
2 h, 2 hours with compound
  IC50: 0.095 µM

## Cc1ccc2[nH]ncc2c1-c1nc(-c2ccc(F)cc2Nc2ncc(C#N)cn2)nc(C(N)=O)c1N [Compound 535]
2 h, 2 h compound incubation
  IC50: 0.151 µM
